Where “and” joins values, the source holds several entries; their conditions need not be identical. Identical values can stand only once. Toxic doses and inconclusive results are not listed. Rule for the calls: active = survival T/C of 150% or more; inactive = T/C below 125% in these data.
Test system: P388 leukemia ip, CD2F1 mice, survival T/C
Assay: NCI In Vivo Anticancer Drug Screen. Data for tumor model P388 Leukemia (intraperitoneal) in CD2F1 (CDF1) mice
Conditions: endpoint: median survival time, higher = longer survival
Method in brief: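 Mice carrying the transplanted tumor received test compound or vehicle. Survival was recorded in each group, and the value is the treated-group measurement divided by that of the vehicle-treated control group.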

[1] = dose: 50.0 mg/kg/injection, schedule: Q01DX009 (ip), vehicle: Klucel (hydroxypropylcellulose) (HPC)
[2] = dose: 100.0 mg/kg/injection, schedule: Q01DX009 (ip), vehicle: Klucel (hydroxypropylcellulose) (HPC)
[3] = dose: 200.0 mg/kg/injection, schedule: Q01DX009 (ip), vehicle: Klucel (hydroxypropylcellulose) (HPC)
[4] = dose: 50.0 mg/kg/injection, schedule: Q01DX009 (ip), vehicle: saline with Tween-80
[5] = dose: 100.0 mg/kg/injection, schedule: Q01DX009 (ip), vehicle: saline with Tween-80
[6] = dose: 200.0 mg/kg/injection, schedule: Q01DX009 (ip), vehicle: saline with Tween-80
[7] = dose: 50.0 mg/kg/injection, schedule: Q01DX005 (ip), vehicle: saline
[8] = dose: 100.0 mg/kg/injection, schedule: Q01DX005 (ip), vehicle: saline
[9] = dose: 200.0 mg/kg/injection, schedule: Q01DX005 (ip), vehicle: saline
[10] = dose: 60.0 mg/kg/injection, schedule: Q01DX005 (ip), vehicle: saline with Tween-80
[11] = dose: 120.0 mg/kg/injection, schedule: Q01DX005 (ip), vehicle: saline with Tween-80
[12] = dose: 240.0 mg/kg/injection, schedule: Q01DX005 (ip), vehicle: saline with Tween-80

Measured: T/C

O=C1C=C(SCCO)C(=O)c2ccccc21
inactive: dose: 0.62 mg/kg/injection, schedule: Q01DX009 (ip), vehicle: saline with Tween-80 100 % of control | dose: 1.25 mg/kg/injection, schedule: Q01DX009 (ip), vehicle: saline with Tween-80 100 % of control | dose: 2.5 mg/kg/injection, schedule: Q01DX009 (ip), vehicle: saline with Tween-80 95 % of control

O=C(OCc1ccccc1)SS(=O)(=O)O
inactive: [1] 95 % of control | [2] 110 % of control | [3] 119 % of control

c1ccc(CN2CCCC3CCCC32)cc1 (stereo not given)
inactive: dose: 100.0 mg/kg/injection, schedule: Q01DX001 (ip), vehicle: saline with Tween-80 97 % of control

CCCCCCCCCCCCCCCCS(=O)(=O)N/N=c1/sc2ccc(S(=O)(=O)O)cc2n1C
inactive: [1] 115 % of control | [2] 102 % of control | [3] 94 % of control

Cc1cccc(C)c1NC(=O)C1C(=O)C(=O)N(c2c(C)cccc2C)C1=O (stereo not given)
inactive: dose: 25.0 mg/kg/injection, schedule: Q04DX002 (ip), vehicle: saline with Tween-80 100 % of control | dose: 50.0 mg/kg/injection, schedule: Q04DX002 (ip), vehicle: saline with Tween-80 101 % of control | dose: 100.0 mg/kg/injection, schedule: Q04DX002 (ip), vehicle: saline with Tween-80 98 % of control and 100 % of control

CCc1c2oc(C(=O)c3ccc(Cl)cc3)cc2n2ccccc12
inactive: dose: 60.0 mg/kg/injection, schedule: Q01DX005 (ip), vehicle: Klucel + Tween-80 89 % of control | dose: 120.0 mg/kg/injection, schedule: Q01DX005 (ip), vehicle: Klucel + Tween-80 86 % of control

Cc1nnc(Cc2ccc([N+](=O)[O-])cc2)c2n[nH]c(C)c12
inactive: dose: 25.0 mg/kg/injection, schedule: Q01DX001 (ip), vehicle: Klucel (hydroxypropylcellulose) (HPC) 104 % of control | dose: 50.0 mg/kg/injection, schedule: Q01DX001 (ip), vehicle: Klucel (hydroxypropylcellulose) (HPC) 102 % of control | dose: 100.0 mg/kg/injection, schedule: Q01DX001 (ip), vehicle: Klucel (hydroxypropylcellulose) (HPC) 109 % of control | dose: 100.0 mg/kg/injection, schedule: Q04DX002 (ip), vehicle: Klucel (hydroxypropylcellulose) (HPC) 90 % of control

CC(C)N1C(=O)c2ccccc2S12c1ccccc1C(=O)N2C(C)C
inactive: dose: 100.0 mg/kg/injection, schedule: Q04DX003 (ip), vehicle: Klucel (hydroxypropylcellulose) (HPC) 93 % of control | dose: 200.0 mg/kg/injection, schedule: Q04DX003 (ip), vehicle: Klucel (hydroxypropylcellulose) (HPC) 90 % of control | dose: 400.0 mg/kg/injection, schedule: Q04DX003 (ip), vehicle: Klucel (hydroxypropylcellulose) (HPC) 90 % of control

C1CCC(N2OC23CCCCC3)CC1 (stereo not given)
inactive: dose: 25.0 mg/kg/injection, schedule: Q01DX009 (ip), vehicle: saline with Tween-80 113 % of control | [4] 117 % of control | [5] 123 % of control | [6] 113 % of control

CCS(=O)O
inactive: dose: 60.0 mg/kg/injection, schedule: Q01DX005 (ip), vehicle: saline 106 % of control | dose: 120.0 mg/kg/injection, schedule: Q01DX005 (ip), vehicle: saline 112 % of control | dose: 240.0 mg/kg/injection, schedule: Q01DX005 (ip), vehicle: saline 112 % of control

CCN(CC)CCCC(C)Nc1ncnc2ccc(OC)cc12 (stereo not given)
inactive: [7] 94 % of control | [8] 99 % of control | [9] 94 % of control

C1N2CN3CN1CN(C2)C3
inactive: [7] 95 % of control | [8] 101 % of control | [9] 96 % of control

O=C(CSC(=S)N1CCCCC1)c1ccc([N+](=O)[O-])cc1
inactive: dose: 12.5 mg/kg/injection, schedule: Q01DX009 (ip), vehicle: distilled water + Tween-80 98 % of control | dose: 25.0 mg/kg/injection, schedule: Q01DX009 (ip), vehicle: distilled water + Tween-80 96 % of control | dose: 50.0 mg/kg/injection, schedule: Q01DX009 (ip), vehicle: distilled water + Tween-80 90 % of control | dose: 100.0 mg/kg/injection, schedule: Q01DX009 (ip), vehicle: distilled water + Tween-80 90 % of control | dose: 200.0 mg/kg/injection, schedule: Q01DX009 (ip), vehicle: distilled water + Tween-80 89 % of control

Cc1ncc(CO)c(CO)c1OCC(O)CN1CCN(c2ccc(F)cc2)CC1 (stereo not given)
inactive: [10] 99 % of control | [11] 98 % of control | [12] 104 % of control

O=c1c2cc(O)ccc2sc2c(CO)ccc(NCCN3CCCC3)c12
inactive: dose: 19.25 mg/kg/injection, schedule: Q01DX005 (ip), vehicle: Klucel (hydroxypropylcellulose) (HPC) 101 % of control | dose: 38.5 mg/kg/injection, schedule: Q01DX005 (ip), vehicle: Klucel (hydroxypropylcellulose) (HPC) 100 % of control | dose: 77.0 mg/kg/injection, schedule: Q01DX005 (ip), vehicle: Klucel (hydroxypropylcellulose) (HPC) 106 % of control | dose: 154.0 mg/kg/injection, schedule: Q01DX005 (ip), vehicle: Klucel (hydroxypropylcellulose) (HPC) 109 % of control

FC(F)(F)c1cc(NC(=S)SC2CCCCC2)ccc1Cl
inactive: dose: 25.0 mg/kg/injection, schedule: Q01DX009 (ip), vehicle: saline 103 % of control | dose: 50.0 mg/kg/injection, schedule: Q01DX009 (ip), vehicle: saline 100 % of control and 110 % of control | dose: 100.0 mg/kg/injection, schedule: Q01DX009 (ip), vehicle: saline 107 % of control and 118 % of control | dose: 200.0 mg/kg/injection, schedule: Q01DX009 (ip), vehicle: saline 121 % of control

COc1ccc(OC)c2c(=O)c(C)c(C(=O)O)[nH]c12
inactive: dose: 100.0 mg/kg/injection, schedule: Q01DX001 (ip), vehicle: alkali diluted with saline 103 % of control | dose: 200.0 mg/kg/injection, schedule: Q01DX001 (ip), vehicle: alkali diluted with saline 100 % of control | dose: 400.0 mg/kg/injection, schedule: Q01DX001 (ip), vehicle: alkali diluted with saline 98 % of control

Cc1ccc(S(=O)(=O)N/N=C/C(C)c2cccnc2)cc1 (stereo not given)
inactive: [4] 105 % of control | [5] 99 % of control | [6] 107 % of control

COc1cc(N)c2ncccc2c1Br
inactive: dose: 50.0 mg/kg/injection, schedule: Q01DX005 (ip), vehicle: Klucel (hydroxypropylcellulose) (HPC) 100 % of control | dose: 100.0 mg/kg/injection, schedule: Q01DX005 (ip), vehicle: Klucel (hydroxypropylcellulose) (HPC) 104 % of control | dose: 200.0 mg/kg/injection, schedule: Q01DX005 (ip), vehicle: Klucel (hydroxypropylcellulose) (HPC) 97 % of control

O=C1C=C2c3ccccc3CC(C(=O)O)C2CC1 (stereo not given)
inactive: [10] 100 % of control | [11] 100 % of control | [12] 102 % of control

C[N+](C)(C)C
inactive: dose: 2.5 mg/kg/injection, schedule: Q01DX009 (ip), vehicle: saline 110 % of control | dose: 5.0 mg/kg/injection, schedule: Q01DX009 (ip), vehicle: saline 100 % of control | dose: 10.0 mg/kg/injection, schedule: Q01DX009 (ip), vehicle: saline 100 % of control

O=S1(c2ccccc2)=NC(=S)Nc2ccccc21 (stereo not given)
inactive: [4] 111 % of control | [5] 102 % of control | [6] 98 % of control

O=c1[nH]c2c(c(=O)[nH]1)CCCCCC2
inactive: dose: 25.0 mg/kg/injection, schedule: Q01DX009 (ip), vehicle: Klucel (hydroxypropylcellulose) (HPC) 102 % of control and 103 % of control | [1] 99 % of control and 103 % of control | [2] 91 % of control and 97 % of control | [3] 102 % of control and 94 % of control

CC(C)CC(NC(CCC(=O)O)C(=O)O)C(=O)O (stereo not given)
inactive: dose: 2.25 mg/kg/injection, schedule: Q01DX005 (ip), vehicle: saline 106 % of control | dose: 4.5 mg/kg/injection, schedule: Q01DX005 (ip), vehicle: saline 106 % of control | dose: 9.0 mg/kg/injection, schedule: Q01DX005 (ip), vehicle: saline 96 % of control | dose: 18.0 mg/kg/injection, schedule: Q01DX005 (ip), vehicle: saline 104 % of control

C/C(=C\C(=O)O)Cc1ccccc1 (tested in a mixture with another compound)
inactive: dose: 100.0 mg/kg/injection, schedule: Q04DX003 (ip), vehicle: other 108 % of control | dose: 200.0 mg/kg/injection, schedule: Q04DX003 (ip), vehicle: other 100 % of control | dose: 400.0 mg/kg/injection, schedule: Q04DX003 (ip), vehicle: other 108 % of control

C=CC(=NC(C)(C)C)Nc1ccc(OC)cc1
inactive: [4] 112 % of control | [5] 112 % of control

CC(=O)N/N=C/C=C/c1ccccc1
inactive: dose: 3.13 mg/kg/injection, schedule: Q01DX009 (ip), vehicle: saline with Tween-80 117 % of control | dose: 6.25 mg/kg/injection, schedule: Q01DX009 (ip), vehicle: saline with Tween-80 106 % of control | dose: 12.5 mg/kg/injection, schedule: Q01DX009 (ip), vehicle: saline with Tween-80 104 % of control

Reference: PubChem BioAssay AID330 (DTP/NCI, 2004)
